In patent US20150020916A1, “Antiperspirant Spray Devices and Compositions” (The Procter & Gamble Company, priority 2013, published 2015):

From the text: (§1) Solubility may be determined by measuring the amount of light transmittance (a light transmittance value) through a simple mixture of the non-volatile silicone fluid and liquid activation enhancer at the same weight/weight concentrations as in a final antiperspirant composition.
as §1, with “Solubility of a liquid activation enhancer in a non-volatile silicone” for “Solubility”, “(light” for “(a light”
The Spectronic Genesys 10 Vis utilizes a tungsten-halogen light source and has a spectral bandwidth of 5 nm, a wavelength range of 325 to 1100 nm, accuracy of ±1 nm and a repeatability of ±0.5 nm. Readouts include absorbance, transmittance and concentration. The spectrophotometer is set to 640 nm wavelength and the percent transmittance mode/readout. Polystyrene spectrometer cuvettes having a 1 cm optical light path and transmittance between ˜340 nm and ˜900 nm are used. One suitable example of a spectrometer cuvette is available from VWR International LLC under Catalog #97000-584 having a 2.5 to 4.5 ml capacity. The spectrophotometer is calibrated according to the manufacturer's instructions using a reference cuvette and composition comprised of just the non-volatile silicone fluid of interest. For example, if the test composition comprises 50 centistoke dimethicone and 15% w/w of isopropyl myristate, then the spectrometer is calibrated using a cuvette containing just 50 centistoke dimethicone. Sample cuvettes are filled sufficiently with a test composition of a non-volatile silicone fluid and liquid activation enhancer so that the light path of the spectrophotometer passes through the test composition in the cuvette. The sample cuvettes are shaken well just prior to taking a light transmittance reading.

| Compound | light transmittance value | solubility in 50 centistoke dimethicone |
| --- | --- | --- |
| mineral oil | – | soluble in 50 centistoke dimethicone at some (lower) concentrations |
| PPG-14 butyl ether | – | insoluble |
| CCCCCCCCCCC(CO)CCCCCCCC (centres unmarked) [octyldodecanol] | – | soluble in the 50 centistoke dimethicone at some (lower) concentrations |

Continued, in another order:

| light transmittance value | Compound | solubility in 50 centistoke dimethicone |
| --- | --- | --- |
| about 101% | CCCCCCCCCCCCCC(=O)OC(C)C [isopropyl myristate] | – |
| about 101% | CCCCCCCCCCCCCCCC(=O)OC(C)C [isopropyl palmitate] | – |
| about 100% | CCCCCCCCCCCCCC(C)C [isohexadecane] | soluble |
| about 100% | CCCCCCCCCCCCCCCCCC(=O)OCCCC [butyl stearate] | – |
